Source: patent US10975384B2, “PYL9 and uses thereof” (PURDUE RESEARCH FOUNDATION, priority 2015, dated 2021)

Experiments:
Arabidopsis plants = assay: Osmotic potential measurements after ABA spray; type: in vivo; settings: developing bud tissue, 20 μM ABA spray, 2 d
Procedure: Plant samples were collected in a plastic centrifuge tube filter (without membrane; Corning Costar Spin-X) and then, quick-frozen in liquid nitrogen. After thawing, the sap was collected by centrifuging at 16,000×g for 4 min to remove insoluble material. A 10-μL volume of cell sap was measured using a vapor pressure osmometer (Model 5200; Wescor). Solute concentration was converted to osmotic potential (Ψπ) using the van't Hoff law: Ψπ=−RTc, where c is the molar solute concentration (osmolality; moles kilogram-1), R is the gas constant (0.08314 L Bar mol−1 K−1), and T is the temperature in Kelvin.

[1] = test system: ORE1 and AtNAP expression; assay: Quantitative RT-PCR of ORE1 and AtNAP in mature leaves after ABA; type: in vivo, Arabidopsis; settings: 20 μM ABA spray
Procedure: Northern blot and real-time PCR were performed as reported (18). For Northern blot analysis, the probe was labeled with the PCR-DIG Probe Synthesis Kit (Roche). RD29A-F (SEQ ID NO. 83) and PYL9-R (SEQ ID NO. 84) were used for the PCR. For real-time PCR, reactions were performed with iQ SYBR Green Supermix (BioRad). The primers used include SEQ ID NOs. 71 to 80. Quantitative RT-PCR was conducted on mature leaves of 4-wk-old Arabidopsis plants that were growing in soil and sprayed with 20 μM ABA.

[2] = test system: pRD29A::PYL9 transgenic plants; assay: Drought resistance of pRD29A::PYL9 transgenic Arabidopsis with ABA treatment; type: in vivo; settings: 10 μM ABA applied once after water withheld for 12 d, plants after flowering
Procedure: Soil water content percentage during drought treatment in Arabidopsis was measured as described (27). We used 591-mL pots (48-7214; 04.00 SQ TL TW; Myers Industries) with 130 g (˜62 g oven dry weight) Fafard Super-Fine Germinating Mix Soil (Sungro Horticultures) per pot. After being saturated with water, the total weight of the wet soil was ˜440 g per pot. Pots were covered with plastic film to reduce water loss from soil surface. Three-week-old plants (four plants per pot) were subjected to drought stress by withholding water. Plants were sprayed with 2 mL 10 μM ABA plus 0.2% Tween-20 per pot after water was withheld for 12 d. Soil water content percentage was computed as total weight minus dry soil weight divided by water weight before drought according to the work (27). For drought treatment on rice, we measured the relative water content using the Soil Temperature/Moisture Meter L99-TWS-1 (Shanghai Fotel Precise Instrument Co., Ltd) following the work (40). Before drought treatment, the mixed vermiculite and sandy soil (Zhongfang Horticulture Co.) for rice was saturated with water, and the relative soil water content before drought was set as 100%. Rice plants at the four-leaf stage were subjected to drought by withholding water for 14 d, and the relative soil water content after the drought treatment was ˜20%.

SAG12-LUC expression = assay: SAG12-LUC transient expression assay in Arabidopsis protoplasts; type: cell-based; settings: snrk2.2/3/6 triple-mutant protoplasts, ABA treatment
Procedure: Assays for transient expression in protoplasts were performed as described (18). All steps were performed at room temperature. SAG12-LUC and ORE1L-LUC were used as the senescence-responsive reporters, and ZmUBQ-GUS was used as the internal control. After transfection, protoplasts were incubated in washing and incubation solution without ABA or with 5 μM ABA under light for 16 h.

Question: Which osmotic potential (Arabidopsis plants) does the source give for `CC1=CC(=O)CC(C)(C)[C@@]1(O)/C=C/C(C)=C\C(=O)O` [ABA, abscisic acid] here?
Answer: The osmotic potential was “reduced”.

Question: And the “expression of ORE1 and AtNAP” value [1]?
Answer: The value was “induced”.

Question: What about the drought resistance [2] of the same compound?
Answer: Its drought resistance is “significantly increased”.

Question: And the SAG12-LUC expression (SAG12-LUC expression)?
Answer: Its SAG12-LUC expression is “not enhanced”.
